# From patent publication US8034904B2, “Anti-IGF-I receptor antibody” (Immunogen Inc., priority 2002, dated 2011)
# Positions count from the first letter of the chain named.
# B1: Fab fragment of EM164 antibody: Fab fragment of EM164 antibody, prepared by papain digestion (antibody, V domains shown)
# VH: QVQLQQSGAELVKPGASVKLSCKASGYTFTSYWMHWVKQRPGQGLEWIGEINPSNGRTNYNEKFKRKATLTVDKSSSTAYMQLSSLTSEDSAVYYFARGRPDYYGSSKWYFDVWGAGTTVTVS
# VL: DVLMTQTPLSLPVSLGDQASISCRSSQSIVHSNVNTYLEWYLQKPGQSPKLLIYKVSNRFSGVPDRFSGSGSGTDFTLRISRVEAEDLGIYYCFQGSHVPPTFGGGTKLEIKR
# B2: humanized EM164 v1.0: resurfaced EM164 with all 10 human surface residues (light chain aa3 V, aa45 R) (antibody, V domains shown)
# VH: B1 VH with Q5V, L11V, E62Q, K65Q, R66G, A116Q
# VL: B1 VL with L3V, Q18P, K50R, S72A
# B3: chimeric version of EM164 antibody with 92F→C mutation: chimeric version of EM164 antibody with 92F→C mutation in heavy chain (antibody, V domains shown)
# VH: QVQLQQSGAELVKPGASVKLSCKASGYTFTSYWMHWVKQRPGQGLEWIGEINPSNGRTNYNEKFKRKATLTVDKSSSTAYMQLSSLTSEDSAVYYCARGRPDYYGSSKWYFDVWGAGTTVTVSS
# VL: DVLMTQTPLSLPVSLGDQASISCRSSQSIVHSNVNTYLEWYLQKPGQSPKLLIYKVSNRFSGVPDRFSGSGSGTDFTLRISRVEAEDLGIYYCFQGSHVPPTFGGGTKLEIK
# Legend:
# [1] = Bhuyan et al., 1982; cited from earlier work
# MCF-7 (breast) cells = assay: Growth and survival of MCF-7 cells (MTT assay); format: cell-based, human
# Protocol: (§1) Several human tumor cell lines were tested in serum-free conditions for their growth and survival response to IGF-I. These cell lines were treated with EM164 antibody in the presence of IGF-I, IGF-II, or serum, and their growth and survival responses were measured using an MTT assay after 2-4 days. Approximately 1500 cells were plated in a 96-well plate in regular medium with serum, which was replaced with serum-free medium the following day (either serum-free RPMI medium supplemented with transferrin and BSA, or phenol-red free medium as specified by Dufourny, B. et al., 1997, J. Biol. Chem., 272, 31163-31171). After one day of growth in serum-free medium, the cells were incubated with about 75 μL of 10 μg/mL antibody for 30 min.-3 h, followed by the addition of 25 μL of IGF-I (or IGF-II or serum) solution to obtain a final concentration of 10 ng/mL IGF-I, or 20 ng/mL IGF-II, or 0.04-10% serum. In some experiments, the cells were stimulated first with IGF-I for 15 min before the addition of EM164 antibody, or both IGF-I and EM164 antibody were added together. The cells were then allowed to grow for another 2-3 days. A solution of MTT (3-(4,5)-dimethylthiazol-2-yl)-2,5-diphenyltetrazolium bromide; 25 μL of a 5 mg/mL solution in PBS) was then added and the cells were returned to the incubator for 2-3 h. The medium was then removed and replaced by 100 μL DMSO, mixed, and the absorbance of the plate was measured at 545 nm.
# HT-3 (cervical) cells = assay: Growth and survival of HT-3 cells (MTT assay); format: cell-based, human; conditions: 10 ng/mL IGF-I, 3- to 4-day
# Protocol: as §1, with “A solution of MTT (3-(4,5)-dimethylthiazol-2-yl)-2,5-diphenyltetrazolium bromide; 25 μL of a 5 mg/mL solution in PBS) was then added and the cells were returned to the incubator for 2-3 h.” left out
# Colo 205 (colon) cells = assay: Growth and survival of Colo 205 cells (MTT assay); format: cell-based, human; conditions: 10 ng/mL IGF-I, 3- to 4-day
# Protocol: as §1
# HT-29 colon cancer cells = assay: Growth and survival of HT-29 cells (MTT assay, colony formation); format: cell-based, human; conditions: HT-29; 10 ng/mL IGF-I, 3- to 4-day
# Protocol: as §1
# NCI-H838 (lung) cells = assay: Growth and survival of NCI-H838 cells (MTT assay); format: cell-based, human; conditions: NCI-H838 (lung); 10 ng/mL IGF-I, 3- to 4-day
# Protocol: as §1
# [2] = tested on: Calu-6 non-small cell lung cancer cells; assay: Growth and survival of Calu-6 cells (MTT assay); format: cell-based, human; conditions: 10 ng/mL IGF-I, 3- to 4-day
# Protocol: as §1
# SK-LU-1 cells = assay: Growth and survival of SK-LU-1 cells (MTT assay); format: cell-based, human; conditions: 10 ng/mL IGF-I, 3- to 4-day
# Protocol: as §1
# NCI-H596 cells = assay: Growth and survival of NCI-H596 cells (MTT assay); format: cell-based, human; conditions: 10 ng/mL IGF-I, 3- to 4-day
# Protocol: as §1
# A 549 cells = assay: Growth and survival of A 549 cells (MTT assay); format: cell-based, human; conditions: 10 ng/mL IGF-I, 3- to 4-day
# Protocol: as §1, with “A solution of MTT (3-(4,5)-dimethylthiazol-2-yl)-2,5-diphenyltetrazolium bromide; 25 μL of a 5 mg/mL solution in PBS) was then added and the cells were returned to the incubator for 2-3 h.” left out
# A 375 (melanoma) cells = assay: Growth and survival of A 375 cells (MTT assay); format: cell-based, human; conditions: 10 ng/mL IGF-I, 3- to 4-day
# Protocol: as §1
# SK-Mel-37 cells = assay: Growth and survival of SK-Mel-37 cells (MTT assay); format: cell-based, human; conditions: 10 ng/mL IGF-I, 3- to 4-day
# Protocol: as §1, with “A solution of MTT (3-(4,5)-dimethylthiazol-2-yl)-2,5-diphenyltetrazolium bromide; 25 μL of a 5 mg/mL solution in PBS) was then added and the cells were returned to the incubator for 2-3 h.” left out
# [3] = tested on: RD (rhabdomyocarcoma) cells; assay: Growth and survival of RD cells (MTT assay); format: cell-based, human; conditions: 10 ng/mL IGF-I, 3- to 4-day
# Protocol: as §1
# [4] = tested on: SaOS-2 (osteosarcoma) cells; assay: Growth and survival of SaOS-2 cells (MTT assay); format: cell-based, human; conditions: 10 ng/mL IGF-I, 3- to 4-day
# Protocol: as §1
# A 431 (epidermoid) cells = assay: Growth and survival of A 431 cells (MTT assay); format: cell-based, human; conditions: 10 ng/mL IGF-I, 3- to 4-day
# Protocol: as §1
# [5] = tested on: SK-N-SH (neuroblastoma) cells; assay: Growth and survival of SK-N-SH cells (MTT assay); format: cell-based, human; conditions: 10 ng/mL IGF-I, 3- to 4-day
# Protocol: as §1
# MCF-7 cells = assay: Cell cycle analysis of MCF-7 cells (propidium iodide, flow cytometry); format: cell-based, human; conditions: IGF-I 20 ng/mL with or without EM164 20 μg/mL, 1 day
# Protocol: The EM164 antibody caused growth arrest of cells in G0/G1 phase of cell cycle and abrogated the mitogenic effect of IGF-I. For cell cycle analysis, MCF-7 cells were treated with IGF-I (20 ng/mL) in the presence or absence of EM164 (20 μg/mL) for 1 day and then analyzed by propidium iodide staining and flow cytometry.
# multiple myeloma = conditions: previously untreated stages I or II myeloma; cited from earlier work
# [6] = tested on: Human non-small cell lung cancer Calu-6 xenografts; format: in vivo; conditions: established 100 mm^3 Calu-6 xenografts; EM164 0.8 mg/mouse i.v. x6; taxol 15 mg/kg i.p. x5
# Text: Human non-small cell lung cancer Calu-6 xenografts were established in immunodeficient mice by subcutaneous injections of 1×10^7 Calu-6 cells.
# [7] = biological target: biotinylated human IGF-I receptor; assay: ELISA binding titration (Kd) with biotinylated IGF-I receptor; conditions: ELISA titration, non-linear regression for one-site binding; read-out: dissociation constant (Kd)
# biotinylated human IGF-I receptor, sequence (P08069 31-736 limits assumed): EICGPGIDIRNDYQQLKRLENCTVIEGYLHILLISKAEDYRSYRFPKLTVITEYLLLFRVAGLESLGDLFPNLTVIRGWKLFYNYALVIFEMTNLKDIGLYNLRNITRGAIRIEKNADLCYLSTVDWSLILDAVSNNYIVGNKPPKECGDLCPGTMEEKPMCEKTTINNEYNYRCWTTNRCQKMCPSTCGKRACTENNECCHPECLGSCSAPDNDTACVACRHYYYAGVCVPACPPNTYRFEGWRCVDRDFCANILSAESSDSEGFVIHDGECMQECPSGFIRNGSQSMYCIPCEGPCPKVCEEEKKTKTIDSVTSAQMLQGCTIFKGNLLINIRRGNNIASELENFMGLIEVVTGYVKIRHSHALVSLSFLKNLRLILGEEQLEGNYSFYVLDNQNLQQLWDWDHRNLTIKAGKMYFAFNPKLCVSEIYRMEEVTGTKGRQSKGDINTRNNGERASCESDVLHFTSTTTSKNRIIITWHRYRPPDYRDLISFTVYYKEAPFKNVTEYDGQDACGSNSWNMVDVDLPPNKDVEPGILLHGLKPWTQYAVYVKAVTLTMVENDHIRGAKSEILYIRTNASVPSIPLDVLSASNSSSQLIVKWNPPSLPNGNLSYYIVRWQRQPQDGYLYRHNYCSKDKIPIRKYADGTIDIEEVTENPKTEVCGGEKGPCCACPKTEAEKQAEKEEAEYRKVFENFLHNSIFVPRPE
# biotinylated human IGF-I receptor, sequence (P08069 741-935 limits assumed): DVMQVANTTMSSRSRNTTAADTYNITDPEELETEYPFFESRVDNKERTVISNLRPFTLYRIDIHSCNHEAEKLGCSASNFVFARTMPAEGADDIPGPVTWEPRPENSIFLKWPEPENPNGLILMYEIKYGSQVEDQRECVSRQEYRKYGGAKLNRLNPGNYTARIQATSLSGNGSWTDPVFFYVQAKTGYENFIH
# Protocol: The wells were next washed with TBS-T buffer and incubated with goat-anti-mouse-IgGH+L-antibody-horseradish peroxidase conjugate (100 μL; 0.5 μg/mL in blocking buffer), followed by washes and detection using ABTS/H2O2 substrate at 405 nm. The value of Kd was estimated by non-linear regression for one-site binding.
# A similar binding titration was carried out using the Fab fragment of EM164 antibody, prepared by papain digestion of the antibody as described by E. Harlow and D. Lane (“Using Antibodies: A Laboratory Manual”; 1999, Cold Spring Harbor Laboratory Press, New York).
# [8] = tested on: biotinylated full-length human IGF-I receptor; assay: ELISA binding competition of humanized/chimeric versus murine EM164
# biotinylated full-length human IGF-I receptor, sequence (P08069 31-498 limits assumed): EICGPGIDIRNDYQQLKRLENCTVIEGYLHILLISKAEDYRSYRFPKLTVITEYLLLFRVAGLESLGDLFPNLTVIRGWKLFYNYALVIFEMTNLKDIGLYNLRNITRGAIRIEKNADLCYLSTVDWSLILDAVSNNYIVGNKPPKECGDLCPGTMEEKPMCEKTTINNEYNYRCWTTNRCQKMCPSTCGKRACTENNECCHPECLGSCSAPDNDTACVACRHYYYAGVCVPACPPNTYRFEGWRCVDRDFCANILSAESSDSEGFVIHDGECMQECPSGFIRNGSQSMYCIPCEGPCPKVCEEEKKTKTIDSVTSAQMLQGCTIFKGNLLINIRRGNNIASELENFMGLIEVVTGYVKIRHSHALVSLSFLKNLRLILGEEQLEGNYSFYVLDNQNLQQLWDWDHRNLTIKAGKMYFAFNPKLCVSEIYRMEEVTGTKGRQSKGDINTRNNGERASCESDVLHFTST
# Protocol: The affinities of the humanized EM164 antibody versions 1.0-1.3 were compared to those of murine EM164 antibody through binding competition assays using biotinylated full-length human IGF-I receptor or myc-epitope tagged truncated IGF-I receptor alpha chain, as described above. Humanized EM164 antibody samples were obtained by transient transfection of the appropriate expression vectors in human embryonic kidney 293T cells, and antibody concentrations were determined by ELISA using purified humanized antibody standards. For ELISA binding competition measurements, mixtures of humanized antibody samples and various concentrations of murine EM164 antibody were incubated with indirectly captured biotinylated full-length IGF-I receptor or myc-epitope tagged truncated IGF-I receptor alpha chain. After equilibration, the bound humanized antibody was detected using a goat-anti-human-Fab′2-antibody-horseradish peroxidase conjugate. Plots of ([bound murine Ab]/[bound humanized Ab]) vs ([murine Ab]/[humanized Ab]), which theoretically yield a straight line with slope=(Kd humanized Ab/Kd murine Ab), were used to determine the relative affinities of the humanized and murine antibodies.
# An Immulon-2HB ELISA plate was coated with 100 μL of 5 μg/mL streptavidin per well in carbonate buffer at ambient temperature for 7 h. […] The wells were then washed with TBS-T buffer and incubated with goat-anti-human-Fab′2-antibody-horseradish peroxidase conjugate for 1 h (100 μL; 1 μg/mL in blocking buffer), followed by washes and detection using ABTS/H2O2 substrate at 405 nm.
molecule,measurement,setting,value
COc1c(O)c2c(c3cc(C(=O)N4CCc5c4c(O)c(OC)c4[nH]c(C(=O)N6CC7CC78C6=CC(=O)c6[nH]cc(C)c68)cc54)[nH]c13)CCN2C(N)=O (stereo not shown) [CC-1065],"potency in vitro relative to doxorubicin, methotrexate and vincristine",[1],about 1000 fold
"IGF-I: insulin-like growth factor-I, ligand of the IGF-I receptor used as growth stimulant [reference compound]",Fold growth response to IGF-I (MTT assay: ratio for IGF-I treated vs untreated cells in serum-free medium),"MCF-7 (breast) cells; MCF-7 (breast), 10 ng/mL IGF-I, 3- to 4-day",1.7-2.8
same,Fold growth response to IGF-I (MTT assay: ratio for IGF-I treated vs untreated cells in serum-free medium),HT-3 (cervical) cells,2
same,Fold growth response to IGF-I (MTT assay: ratio for IGF-I treated vs untreated cells in serum-free medium),Colo 205 (colon) cells,2.3
same,Fold growth response to IGF-I (MTT assay: ratio for IGF-I treated vs untreated cells in serum-free medium),HT-29 colon cancer cells,1.5
same,Fold growth response to IGF-I (MTT assay: ratio for IGF-I treated vs untreated cells in serum-free medium),NCI-H838 (lung) cells,3
same,Fold growth response to IGF-I (MTT assay: ratio for IGF-I treated vs untreated cells in serum-free medium),[2],1.6-1.8
same,Fold growth response to IGF-I (MTT assay: ratio for IGF-I treated vs untreated cells in serum-free medium),SK-LU-1 cells,1.4
same,Fold growth response to IGF-I (MTT assay: ratio for IGF-I treated vs untreated cells in serum-free medium),NCI-H596 cells,1.4
same,Fold growth response to IGF-I (MTT assay: ratio for IGF-I treated vs untreated cells in serum-free medium),A 549 cells,1.2
same,Fold growth response to IGF-I (MTT assay: ratio for IGF-I treated vs untreated cells in serum-free medium),A 375 (melanoma) cells,1.6
same,Fold growth response to IGF-I (MTT assay: ratio for IGF-I treated vs untreated cells in serum-free medium),SK-Mel-37 cells,1.4
same,Fold growth response to IGF-I (MTT assay: ratio for IGF-I treated vs untreated cells in serum-free medium),[3],1.7
same,Fold growth response to IGF-I (MTT assay: ratio for IGF-I treated vs untreated cells in serum-free medium),[4],2.5
same,Fold growth response to IGF-I (MTT assay: ratio for IGF-I treated vs untreated cells in serum-free medium),A 431 (epidermoid) cells,2.2
same,Fold growth response to IGF-I (MTT assay: ratio for IGF-I treated vs untreated cells in serum-free medium),[5],2
same,cells in the G0/G1 phase,MCF-7 cells,50%
same,cells in the S phase,MCF-7 cells,41%
IFN-α,patients who responded to treatment,multiple myeloma,7 of 14
"CC(=O)O[C@H]1C(=O)[C@@]2(C)[C@H]([C@H](OC(=O)c3ccccc3)[C@]3(O)C[C@H](OC(=O)[C@H](O)[C@@H](NC(=O)c4ccccc4)c4ccccc4)C(C)=C1C3(C)C)[C@]1(OC(C)=O)CO[C@@H]1C[C@@H]2O [taxol, reference compound]",growth of tumors,[6],effective until day 14
B1,Kd,[7],0.3 nM
B2,"inhibition of serum-stimulated growth and survival of MCF-7 cells, compared with murine EM164",MCF-7 (breast) cells,similar
same,slope (=Kd humanized Ab / Kd murine Ab),"[8]; biotinylated IGF-I receptor, FIG. 11, r^2=0.996",0.52
B3,lower affinity than murine EM164 antibody for binding to IGF-I receptor,[8],3 fold
same,slope in binding competition with murine EM164 antibody,[8]; similar binding competition,about 3
